This is an account of results in US20220324865A1 (Bayer Aktiengesellschaft, priority 2018, published 2022).

The assay concerns the target T1, human EP3 receptor (Homo sapiens, UniProt P43115).
T1 construct: expressed in transfected cells; host or cells: CHO K1 (Chinese Hamster Ovary), stably co-transfected with Galpha16 and mitochondrial clytin
T1 sequence (P43115 1-390): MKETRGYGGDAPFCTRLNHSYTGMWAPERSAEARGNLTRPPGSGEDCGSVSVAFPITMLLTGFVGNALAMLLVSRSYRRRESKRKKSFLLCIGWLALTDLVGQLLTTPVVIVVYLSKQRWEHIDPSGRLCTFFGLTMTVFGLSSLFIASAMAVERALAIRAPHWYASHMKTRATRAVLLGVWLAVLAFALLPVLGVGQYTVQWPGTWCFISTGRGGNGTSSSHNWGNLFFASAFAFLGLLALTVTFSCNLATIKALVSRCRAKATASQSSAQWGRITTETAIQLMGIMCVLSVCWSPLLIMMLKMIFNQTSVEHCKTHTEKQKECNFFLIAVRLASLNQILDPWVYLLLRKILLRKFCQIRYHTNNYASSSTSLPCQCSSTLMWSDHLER
As to the kind of experiment: Cellular in vitro assay for determining EP3 receptor activity (human EP3 cell line, sulprostone-stimulated calcium luminescence). Format: cell-based. The following applies: CHO cells expressing human EP3 and mitochondrial Clytin; antagonist mode, sulprostone at EC50; read-out: EP3 CHO mtCLY ANTAG IC50. In a few lines:
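CHO K1 cells stably expressing human EP3 with Gα16 and mitochondrial Clytin, loaded overnight with coelenterazine. Compounds added 10 min before sulprostone at its EC50; antagonism read immediately as reduced calcium-driven luminescence, quadruplicate points.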
A word on the IC50: it is the concentration that gives 50% inhibition. Consider `Cc1ccc(-c2cn3nc(C(=O)N[C@H](CCO)c4ccc(F)cc4)c(C#N)c3c(=O)[nH]2)cc1C` [Example 1-58, 3-Cyano-6-(3,4-dimethylphenyl)-N-[(1R)-1-(4-fluorophenyl)-3-hydroxpropyl]-4-oxo-4,5-dihydropyrazolo[1,5-a]pyrazine-2-carboxamide], for which the IC50 was 1.5 nM. For `CC(C)c1c(C(=O)N[C@@H](c2ccc(F)cc2)C(C)(C)O)nn2cc(-c3ccc(Cl)cc3)[nH]c(=O)c12` [6-672] the value was 1.7 nM. For `Cc1cc(-c2cn3nc(C(=O)NC(C)C4CCC4)c(C4CC4)c3c(=O)[nH]2)ccc1Cl` (racemic) [6-298] the value was 2.85 nM; for `Cc1cc(-c2cn3nc(C(=O)N[C@@H](c4ccc(F)cc4)C(F)(F)CO)c(C(C)C)c3c(=O)[nH]2)ccc1Cl` [6-605], 3.8 nM. For the molecule `COc1ccc(-c2cn3nc(C(=O)N[C@@H](c4ccc(F)cc4)C(C)(C)O)c(C4CC4)c3c(=O)[nH]2)cc1F` [6-587], the IC50 is 0.83 nM. For `Cc1cccc2ncc(-c3cn4nc(C(=O)NC5CCOC5)c(C(C)C)c4c(=O)[nH]3)cc12` (stereo not drawn) [Example 4-21, 3-Isopropyl-6-(5-methyl-3-quinolyl)-4-oxo-N-(tetrahydrofuran-3-yl)-5H-pyrazolo[1,5-a]pyrazine-2-carboxamide] the value was 1.95 nM; for `CC(NC(=O)c1cc2c(=O)[nH]c(-c3ccc4ccccc4c3)cn2n1)c1ccc(C(C)(C)C)cc1` (stereo not drawn) [Example 2-40, N-[1-(4-tert.-Butylphenyl)ethyl]-6-(2-naphthyl)-4-oxo-4,5-dihydropyrazolo[1,5-a]pyrazine-2-carboxamide], 3.15 nM. For `CC(C)(O)[C@@H](NC(=O)c1nn2cc(-c3ccc(Cl)c(F)c3)[nH]c(=O)c2c1C(F)F)c1ccc(F)cc1` [6-632], the IC50 stood at 6.3 nM.

In the case of `Cc1cc(-c2cn3nc(C(=O)NCC(N)C(F)(F)F)c(C4CC4)c3c(=O)[nH]2)ccc1C(F)(F)F` (racemic) [6-130], the half-inhibitory concentration (IC50) is 29.5 nM. Regarding `C[C@@H](NC(=O)c1cc2c(=O)[nH]c(-c3ccc4ccccc4c3)cn2n1)c1cccc2ccccc12` [Example 2-27, 6-(2-Naphthyl)-N-[(7R)-1-(1-naphthyl)ethyl]-4-oxo-4,5-dihydropyrazolo[1,5-a]pyrazine-2-carboxamide], the IC50 worked out at 3.25 nM.

Regarding `Cc1ccc(-c2cn3nc(C(=O)N[C@@H](C4CC4)C(C)(C)O)c(C4CC4)c3c(=O)[nH]2)cc1Cl` [6-275], the IC50 came to 2.85 nM. In the case of `Cc1c(C(=O)NC(c2ccc(F)cc2)C(C)C)nn2c(C)c(-c3ccc4ccccc4c3)[nH]c(=O)c12` (stereo not drawn) [Example 3-41, N-[1-(4-Fluorophenyl)-2-methylpropyl]-3,7-dimethyl-6-(2-naphthyl)-4-oxo-5H-pyrazolo[1,5-a]pyrazine-2-carboxamide], the IC50 was 3.95 nM.

Consider `Cc1cccc2ncc(-c3cn4nc(C(=O)N[C@H]5c6ccccc6C[C@H]5O)c(C(C)C)c4c(=O)[nH]3)cc12` [Example 4-69, N-[(7S,2R)-2-Hydroxy-2,3-dihydro-1H-inden-1-yl]-6-(5-methylquinolin-3-yl)-4-oxo-3-(propan-2-yl)-4,5-dihydropyrazolo[1,5-a]pyrazine-2-carboxamide], for which the IC50 was 2 nM.

Turning to `CCN1CC(NC(=O)c2nn3cc(-c4ccc(C)c(C)c4)[nH]c(=O)c3c2C(F)(F)F)(c2ccc(F)cc2)C1` [Example 1-176, 6-(3,4-Dimethylphenyl)-N-[1-ethyl-3-(4-fluorophenyl)azetidin-3-yl]-4-oxo-3-(trifluoromethyl)-4,5-dihydropyrazolo[1,5-a]pyrazine-2-carboxamide], the IC50 was determined as 1.67 nM. For `Cc1ccc(-c2cn3nc(C(=O)N[C@@H](c4ccc(F)cc4)C(C)(C)O)c(C)c3c(=O)[nH]2)cc1Cl` [Example 1-148, 6-(3-Chloro-4-methylphenyl)-N-[(1S)-1-(4-fluorophenyl)-2-hydroxy-2-methylpropyl]-3-methyl-4-oxo-4,5-dihydropyrazolo[1,5-a]pyrazine-2-carboxamide] the value was 1.33 nM. For `Cc1ccc(-c2cn3nc(C(=O)NCC(O)C(F)(F)F)c(C)c3c(=O)[nH]2)cc1F` (single isomer, unassigned) [6-411] the value was 32.5 nM. Take `Cc1ccc(-c2cn3nc(C(=O)N[C@@H](c4ccccc4)C(C)(C)O)c(C4CC4)c3c(=O)[nH]2)cc1F` [6-385]: the IC50 came out at 1.3 nM.

For the molecule `Cc1ccc(-c2cn3nc(C(=O)NCC(O)C(F)(F)F)c(C4CC4)c3c(=O)[nH]2)cc1F` (single isomer, unassigned; enantiomer2) [Example 1-161, 3-Cyclopropyl-6-(3-fluoro-4-methylphenyl)-4-oxo-N-(3,3,3-trifluoro-2-hydroxpropyl)-4,5-dihydropyrazolo[1,5-a]pyrazine-2-carboxamide (enantiomer2)], the IC50 was determined as 5.7 nM. For `C[C@@H](NC(=O)c1cc2c(=O)[nH]c(-c3ccc4c(c3)CCC4)cn2n1)c1ccc(F)cc1` [Example 1-98, 6-(2,3-Dihydro-1H-inden-5-yl)-N-[(1R)-1-(4-fluorophenyl)ethyl]-4-oxo-4,5-dihydropyrazolo[1,5-a]-pyrazine-2-carboxamide], the IC50 turned out to be 3.45 nM. On to `CC[C@H](C)NC(=O)c1nn2cc(-c3ccc(C)c(Cl)c3)[nH]c(=O)c2c1C1CC1` [6-282], for which the IC50 was 1.6 nM. For `O=C(NC1(c2ccc(F)cc2)CN(CC(F)F)C1)c1nn2cc(-c3ccc(Cl)c(F)c3)[nH]c(=O)c2c1C1CC1` [6-108] the value was 1.3 nM. `Cc1ccc(-c2cn3nc(C(=O)N[C@@H](c4ccc(F)cc4)C(C)(C)O)c(C(F)(F)F)c3c(=O)[nH]2)cc1F` [Example 1-147, 6-(3-Fluoro-4-methylphenyl)-N-[(15)-1-(4-fluorophenyl)-2-hydroxy-2-methylpropyl]-4-oxo-3-(trifluoromethyl)-4,5-dihydropyrazolo[1,5-a]pyrazine-2-carboxamide]: the IC50 was found to be 2.9 nM. As for `Cc1cccc2ncc(-c3cn4nc(C(=O)N[C@@H](CO)c5ccccc5)c(C(C)C)c4c(=O)[nH]3)cc12` [Example 4-67, N-[(7R)-2-Hydroxy-1-phenylethyl]-6-(5-methylquinolin-3-yl)-4-oxo-3-(propan-2-yl)-4,5-dihydropyrazolo[1,5-a]pyrazine-2-carboxamide], the IC50 stood at 1.55 nM.

On to `CC(NC(=O)c1cc2c(=O)[nH]c(-c3ccc4ccccc4c3)cn2n1)c1ccccc1OC(F)F` (stereo not drawn) [Example 2-50, N-{1-[2-(Difluormethoxy)phenyl]ethyl}-6-(2-naphthyl)-4-oxo-4,5-dihydropyrazolo[1,5-a]pyrazine-2-carboxamide], for which the IC50 worked out at 1.15 nM. As for `COCc1c(C(=O)NC2(c3ccc(F)cc3)CN(C)C2)nn2cc(-c3ccc4ccccc4c3)[nH]c(=O)c12` [Example 1-21, N-[3-(4-Fluorophenyl)-1-methylazetidin-3-yl]-3-(methoxymethyl)-6-(naphthalen-2-yl)-4-oxo-4,5-dihydropyrazolo[1,5-a]pyrazine-2-carboxamide], the IC50 was determined as 1.25 nM.

Turning to `O=C(N[C@H](CCO)c1ccccc1)c1cc2c(=O)[nH]c(-c3ccc4ccccc4c3)cn2n1` [6-541], the IC50 amounted to 0.97 nM. For the molecule `Cc1cccc2ncc(-c3cn4nc(C(=O)NC(C)c5cccnc5)c(C(C)C)c4c(=O)[nH]3)cc12` (stereo not drawn) [Example 4-70, 3-Isopropyl-6-(5-methyl-3-quinolyl)-4-oxo-N-[1-(3-pyridyl)ethyl]-5H-pyrazolo[1,5-a]pyrazine-2-carboxamide], the IC50 was determined as 2.4 nM. As for `Cc1ccc(-c2cn3nc(C(=O)NCC(O)(C(F)(F)F)C(F)(F)F)c(C4CC4)c3c(=O)[nH]2)cc1C` [6-434], the IC50 amounted to 1.95 nM. For the molecule `Cc1cccc2ncc(-c3cn4nc(C(=O)N[C@@H](c5ccc(F)cc5)C(C)(C)O)c(C(F)(F)F)c4c(=O)[nH]3)cc12` [6-546], the IC50 amounted to 3.13 nM.

As to `Cc1cc(-c2cn3nc(C(=O)NC4(c5ccc(F)cc5)CN(CC(F)(F)F)C4)c(C4CC4)c3c(=O)[nH]2)ccc1Cl` [6-344], the IC50 was determined as 0.99 nM.

On to `Cc1cc(-c2cn3nc(C(=O)N[C@H](CN4CCOCC4)c4ccc(F)cc4)c(C4CC4)c3c(=O)[nH]2)ccc1Cl` [6-337], for which the IC50 is 1.5 nM. `O=C(NC(c1cccc(F)c1)C(F)F)c1cc2c(=O)[nH]c(-c3ccc4ccccc4c3)cn2n1` (stereo not drawn) [Example 2-13, N-[2,2-Difluoro-1-(3-fluorophenyl)ethyl]-6-(2-naphthyl)-4-oxo-4,5-dihydropyrazolo[1,5-a]pyrazine-2-carboxamide]: the IC50 was determined as 1.3 nM. For `CC[C@@H](C)NC(=O)c1nn2cc(-c3ccc(C)c(C)c3)[nH]c(=O)c2c1C1CC1` [Example 1-142, N-[(2R)-Butan-2-yl]-3-cyclopropyl-6-(3,4-dimethylphenyl)-4-oxo-4,5-dihydropyrazolo[1,5-a]-pyrazine-2-carboxamide] the value was 1.16 nM. For `Cc1ccc(-c2cn3nc(C(=O)N[C@@]4(C)CCS(=O)(=O)C4)c(C4CC4)c3c(=O)[nH]2)cc1F` (racemic) [6-376] the value was 5.07 nM; for `Cc1cc(-c2cn3nc(C(=O)NC(c4ccc(F)cc4)C4(O)CC4)c(C4CC4)c3c(=O)[nH]2)ccc1F` (single isomer, unassigned) [6-651], 1 nM.

`CC(C)C(NC(=O)c1cc2c(=O)[nH]c(-c3ccc4ccccc4c3)cn2n1)c1cccs1` (stereo not drawn) [Example 2-38, N-[2-Methyl-1-(2-thienyl)propyl]-6-(2-naphthyl)-4-oxo-4,5-dihydropyrazolo[1,5-a]pyrazine-2-carboxamide]: the IC50 is 2.05 nM.
